Laboratory results from patent US20250034139A1, “AMINE COMPOUNDS HAVING ANTI-INFLAMMATORY, ANTIFUNGAL, ANTIPARASITIC, AND ANTICANCER ACTIVITY” (PHARMA CINQ, LLC, priority 2013, published 2025).
In brackets after ≈: the same amount, converted by molar mass. Like-named read-outs stand apart in the source and are kept apart here.

Columns and labels:
[1] = system: THP-1 cells; assay: Example D: LPS-triggered THP-1 cell death assay, acute/5-hour and chronic/48-hour; assay type: cell-based, Human; details: for Viable cell percent change, Chronic/48-hour, Mean: 10 ng/ml LPS, 0.1 μM test compound
Procedure: Compounds of the invention were tested at 0.1 μM versus AC in the LPS-triggered THP-1 cell death assay. Both acute/5-hour and chronic/48-hour phases of cell death were assessed. Compounds were screened in batches with DMSO as the negative control and AC as the high activity control.

[2] = system: Candida albicans strain 3153; assay: Example H: Candida albicans growth inhibition (OD 600 nm); assay type: cell-based; details: for MIC: Candida albicans, 3153, 24 hrs at 30° C., YPD, XLfit, read-out: MIC (uM) (99% of inhibition of fungal growth); for IC50: Candida albicans, 3153, read-out: IC50 (uM) (50% inhibition of fungal growth), 24 hrs at 30° C., YPD, XLfit
In short: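 Growth inhibition computed as % versus DMSO control from OD600 after ~24 h at 30° C. Inoculum: washed overnight YPD culture of strain 3153 at 3.5×10^4 CFU/ml in YPD; final compound concentrations 0, 5, 10, 16, 22, 30, 40 μM, duplicate wells.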

[3] = system: Trichophyton rubrum; assay: Example J: Trichophyton rubrum growth inhibition, scoring by eye; assay type: cell-based; details: Trichophyton rubrum, 144 h; 6 days at 30° C., tested 6 to 40 μM; read-out: MIC, μM (maximum inhibition concentration, scoring by eye)
Procedure: Trichophyton grown on two agar plates were collected by scraping into 10 ml saline and filtered through 8 μm filters. […] This experiment included some active compounds from previous experiment and added several untested compounds. […] Following table listed the maximum inhibition concentration (MIC) based on scoring by eye. Scrape frozen Trichophyton culture from ATCC vial and suspended in 100 μl PDB, and then plate on a PDA plate. Incubate plate at 30 C for 4 days. The plate was covered almost full. […] Take OD of collected solution at 520 nm and 600 nm: […] Part-II: […] Add 6 μl each of diluted compound solutions per well in triplicates. […] Wrap the plates with […] incubate all plates at 30° C. for 6 days. • Take picture of the plates on KODAK imager with 17 captures of 1.5 sec/capture for total of 25.5 second exposure.

[4] = system: Cryptococcus neoformans (serotype D); assay: Example K: Cryptococcus neoformans (serotype D) growth inhibition; assay type: cell-based; details: Cryptococcus deneoformans, OD of 48 hour reading, 37° C., tested 4 to 60 μM, XLfit
Procedure: Cryptococcus neoformans (serotype D) were plated in 96 well plates with 144 μl/well of 8×10e5 CFU/ml in YM growth medium. Diluted compounds were then added to each well with concentration ranged from 4 to 60 μM as final concentration in duplicates. The plates were inoculated at 37° C. for total of 48 hours. Two readings of OD at 600 nm were measured after 30 and 48 hour treatments.
• 1. Pick a single colony of Cryptococcus from the YM agar plate using the inoculum loop and inoculate into a 125 ml flask containing 25 ml of YM growth medium. • 2. Incubate at 37° C. with shaking at 220 rpm for 24 hours with loosen lid to allow air in and facilitates growth. • 3. Examine an aliquot of the culture under a microscope for yeast cell morphology and lack of bacterial contamination. • 4. Dilute the overnight culture with YM medium at 1:100 dilution and count the number of cells as 1×10^6 cfu/ml. • 5. Make a final concentration of cells suspension at 8×10^5 cfu/ml in YM medium. • 6. Plate 144 μl/well of 8×10^5 cfu/ml cell suspension on 96-well plates. Part-II: Cryptococcus Growth Inhibition Testing with Compounds • 1. From 10 mM DMSO stock solutions, make serial dilutions of compounds to 0.1, 0.2, 0.3, 0.5, 1.0 and 1.5 mM solution. • 2. Add 6 ul each of diluted compound solutions per well in duplicates. The final concentrations were 0, 4, 8, 12, 20, 40 and 60 micromolar. • 3. Incubated all plates at 37° C. overnight (30 hours) with 150 rpm shaking. • 4. Read absorbance at OD600 for each plate. • 5. Leave plates in 37° C. incubator for another day and read absorbance at OD600 again at 48 hours to ensure the inhibitory effect of the compounds. • 6. Calculated the % inhibition and IC50 of each compound against untreated cells.

[5] = system: Hep3B hepatocellular carcinoma cell line; details: for Tumor Weight (g) Mean ± SEM: Hep3B in liver of nude mice, day 35, oral daily, sorafenib 30 mg/kg/day alone, 20 mg/kg/day in combination, AC 180, AK and AB 360 μmol/kg/day; for Body Weight (g) Mean ± SEM Initial: in vivo; for Complete Regressions: number of mice with no viable tumor at necropsy, day 35, doses as Table 35
Text: Hepatocellular carcinoma (HCC) is one of the most common and lethal cancers worldwide, generally developing as a consequence of chronic infection with hepatitis B or C viruses. […] The Hep3B hepatocellular carcinoma cell line is human in origin, contains genetic traces of hepatitis B virus, and can be injected into the livers of athymic immunocompromised mice as a model of primary HCC. […] The test compounds were all administered orally.
The test compounds of the invention were suspended in 1% hydroxypropylmethylcellulose (HPMC) using a sonicator equipped with a microtip to minimize particle size and maximize uniformity of the suspension. Sorafenib was dissolved in a 1:1 mixture of Cremophor EL and ethanol by heating to 60° C. for 1 minute and then sonicating for 10 minutes to fully suspend. Female nude mice (Hsd:athymic nude-Foxn1^nu) weighing approximately 25 g were anesthetized with ketamine/xylazine, laid on their backs, and a 1-cm transverse incision made through the skin and peritoneum of the left upper abdomen. The mediant lobe of the liver was exposed by applying gentle pressure on the abdomen. 1.5-2×10^6 Hep3B cells in a 20 μL volume of matrigel:EMEM serum free (1:1) were slowly implanted by subserosal injection into the liver using a 27-gauge needle on a Hamilton syringe. The liver was allowed to slip back into place, and the peritoneum was closed with sutures and wound clips.
Mice were divided into 8 groups of mice each following injection of cells; the vehicle/vehicle group comprised 12 mice and the other groups comprised 8 or 9. Mice began receiving oral test drug treatments 48 hr post cell injection.
The test compounds, sorafenib, and vehicles were administered by oral gavage. Sorafenib or its cremophor-containing vehicle were given in the morning and compounds of the invention or their HPMC vehicle was administered in the afternoon each day; all animals received two gavage treatments of drugs or appropriate vehicles daily.

[6] = system: 4T1 mouse mammary breast cancer cells; assay: Example O: syngeneic 4T1 breast cancer growth in Balb/C mice; assay type: in vivo; details: 4T1 in female Balb/C mice; for Final Tumor Volume: 120 μmol/kg/day oral gavage, day 2 to day 30; for Δ BW % / Final Body Weight / Initial Body Weight: 120 μmol/kg/day oral; for Δ BW %: final vs initial body weight; for Final Body Weight: in g (unit assumed); for Initial Body Weight: initial (baseline)
Procedure: Cancer models in mice generally either involve syngeneic murine tumors in immunocompetent mice or xenografts of human tumors in immunocompromised mice. […] Mice received test compounds by oral gavage in 1% hydroxypropylmethylcellulose from day 2 until day 30. Tumor growth was assessed by caliper measurements twice per week and tumor weight after necropsy, and body weight was also monitored. Treatment groups were: • 1. […] HPMC) • 2. CI (120 μmol/kg/day) • 3. BA (120 μmol/kg/day) • 4. CP (120 μmol/kg/day) • 5. CQ (120 μmol/kg/day) • 6. AA (120 μmol/kg/day) • 7. AC (120 μmol/kg/day)

[7] = system: 4T1 murine breast cancer cells; assay: Example S: in vitro anticancer screen, 4T1 cells, Wst1; assay type: cell-based, mouse; details: Mus musculus, 4T1, 18 h; for viability at 1 µM: read-out: 4T1 1 μM, percent of cancer cell survival relative to vehicle treated cells; for viability at 5 µM: read-out: 4T1 5 μM, percent of cancer cell survival relative to vehicle treated cells
In short: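 Read-out is Wst1 absorbance (450 nm, reference 630 nm) after roughly 2 hr dye incubation, giving percent cell survival versus vehicle. Before that, compounds at 1 μM or 5 μM were applied for 18 hr to 4T1 cells plated at 1×10^4 per well.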

[8] = system: PC3 human prostate cancer cells; assay: Example S: in vitro anticancer screen, PC-3 cells, Wst1; assay type: cell-based; details: Homo sapiens, read-out: PC-3, percent of cancer cell survival relative to vehicle treated cells
In short: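 Values give percent survival relative to vehicle, read by Wst1 absorbance (450/630 nm) after 2 h dye incubation, in triplicate. Cells were seeded at 2×10^4/well and treated about 20 h with compound at 0.4, 0.5 or 2.5 μM, depending on compound.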

[9] = system: PC-3 prostate cancer cells; assay: Example T: sensitisation of PC-3 cells to doxorubicin, oxaliplatin, paclitaxel or vincristine, Wst1; assay type: cell-based, human; details: for Doxorubicin 3.5 μM: percent cell survival / Oxaliplatin 100 μM: percent cell survival / Paclitaxel 50 μM: percent cell survival / Vincristine 100 nM: percent cell survival: chemotherapy agent alone normalized to 100%

| SMILES | Viable cell percent change, Chronic/48-hour, Mean [1] [%] | MIC [2] [µM] | IC50 [2] [µM] | Tumor Weight (g) Mean ± SEM [5] [g] | Body Weight (g) Mean ± SEM Initial [5] [g] | Complete Regressions [5] | Final Tumor Volume [6] [mm^3] | Δ BW % [6] [%] | Final Body Weight [6] | Initial Body Weight [6] [g] | other results |
| --- | --- | --- | --- | --- | --- | --- | --- | --- | --- | --- | --- |
| CCCCCCOc1ccc(CNc2ncnc3ccccc23)cc1 [AB, N-[4-(Hexyloxy)benzyl]quinazolin-4-amine] | 56.56 | 33 (≈ 11.1 µg/mL) | 11 | 0.88 ± 0.33 | 26.2 ± 0.7 | 2 | – | – | – | – | MIC [3]: 18 µM (≈ 6.04 µg/mL); IC50 ([4]; read-out: IC50 (concentration for 50% of inhibition)): 1.15 µM; MIC ([4]; read-out: MIC (concentration for maximum-99% of inhibition)): 40.8 µM (≈ 13.7 µg/mL) |
| CCCCCCOc1ccc(OCCNc2ccnc3ccccc23)cc1 [BA, N-{2-[4-(Hexyloxy)phenoxy]ethyl}quinolin-4-amine] | 41.79 | 96.7 (≈ 35.3 µg/mL) | 34.6 | – | – | – | 641 ± 159 | −2.7 | 24.8 ± 2.0 | 25.5 ± 1.5 | viability at 1 µM ([7]; 1 μM, 18 hr, Wst1): 71.7%; viability at 5 µM ([7]; 5 μM, 18 hr, Wst1): 220%; viability at 1.5 µM ([8]; PC-3, 1.5 μM, approximately 20 hours, Wst1): 42.4%; viability at 1.5 µM ([9]; Homo sapiens, PC-3 cells, compound 1.5 μM alone, 72 hours, Wst1, vehicle = 100, read-out: No Chemo: percent cell survival): 42.4%; Doxorubicin 3.5 μM: percent cell survival ([9]; PC-3 cells, compound 1.5 μM + doxorubicin 3.5 μM, 72 hours): 167.3%; Oxaliplatin 100 μM: percent cell survival ([9]; PC-3 cells, compound 1.5 μM + oxaliplatin 100 μM, 72 hours): 146.7%; Paclitaxel 50 μM: percent cell survival ([9]; PC-3 cells, compound 1.5 μM + paclitaxel 50 μM, 72 hours): 145.7%; Vincristine 100 nM: percent cell survival ([9]; PC-3 cells, compound 1.5 μM + vincristine 100 nM, 72 hours): 148.7% |
| CCCCOCCCCCCCCNc1ccnc2ccccc12 [CI, N-(8-Butoxyoctyl)quinolin-4-amine] | 28.46 | – | – | – | – | – | 702 ± 244 | −5.5 | 20.6 ± 0.6 | 21.8 ± 0.8 | activity relative to AC in the LPS-triggered THP-1 cell death assay, in words ([1]; 0.1 μM, 5-hour and 48-hour time points): equivalent activity to AC at both the 5-hour and 48-hour time points; viability at 1 µM [7]: 28.3%; viability at 5 µM [7]: 19.1%; viability at 0.4 µM ([8]; PC-3, 20 h): 77.9%; viability at 0.4 µM ([9]; Homo sapiens, PC-3, 72 h, read-out: No Chemo: percent cell survival): 77.9%; Doxorubicin 3.5 μM: percent cell survival ([9]; PC-3 cells, compound 0.4 μM + doxorubicin 3.5 μM, 72 hours): 67.6%; Oxaliplatin 100 μM: percent cell survival ([9]; PC-3 cells, compound 0.4 μM + oxaliplatin 100 μM, 72 hours): 21.8%; Paclitaxel 50 μM: percent cell survival ([9]; PC-3 cells, compound 0.4 μM + paclitaxel 50 μM, 72 hours): 48.7%; Vincristine 100 nM: percent cell survival ([9]; PC-3 cells, compound 0.4 μM + vincristine 100 nM, 72 hours): 33.8% |
| CNC(=O)c1cc(Oc2ccc(NC(=O)Nc3ccc(Cl)c(C(F)(F)F)c3)cc2)ccn1 [Sorafenib, sorafenib, reference compound] | – | – | – | 0.81 ± 0.20 | 25.9 ± 0.7 | 1 | – | – | – | – | – |
